Measurements from patent publication US9839642B2, “Beta-tetrazolyl-propionic acids as metallo-beta-lactamase inhibitors” (priority 2014, dated 2017).
Where two headings read alike, the source gives them in different places.

Experiments:
[1] = target: NDM-1 (Klebsiella pneumoniae, UniProt C7C422); test: Enzyme activity: determination of IC50, fluorescence assay with CCF2-FA substrate; assay type: biochemical; settings: CCF2-FA 1.25 μM, 2 hours at 25° C.
Method in brief: (§1)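 Enzyme at 1 pM (NDM-1), 2 pM (IMP-1) or 30 pM (VIM-1) was incubated with inhibitor (20 μM to 0.00063 μM) and 1.25 μM CCF2-FA in 100 mM KH2PO4 pH 7, 0.005% Tween-20, 10 μM ZnSO4 for 2 hours at 25° C. Fluorescence was read at ex 405/em 460 nm; IC50 from 4-parameter fit.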

[2] = target: VIM-1 (Pseudomonas aeruginosa, UniProt A0A0F7KYQ8); test: as above; assay type: biochemical; settings: CCF2-FA 1.25 μM, 2 hours at 25° C., read-out: VIM1 IC50
Method in brief: as §1

[3] = target: IMP-1 (Serratia marcescens, UniProt P52699); test: as above; assay type: biochemical; settings: CCF2-FA 1.25 μM, 2 hours at 25° C., read-out: IMP1 IC50
Method in brief: as §1

[4] = test system: Serratia marcescens expressing IMP-1 (CL5741); test: Antibiotic potentiation activity: synergistic concentration (MITC95) with imipenem, growth by OD600; assay type: cell-based
Method in brief: (§2)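 Colonies from overnight agar plates (35 °C) were suspended in saline and diluted 1:100 into 1.1× CAMHB. Inhibitor (final 200 μM to 0.195 μM) was combined with imipenem at 1 or 4 μg/ml, incubated 22–24 h at 35 °C, and absorbance read; MITC95 is the lowest inhibitor concentration giving 95% growth inhibition.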

[5] = test system: Escherichia coli expressing NDM-1 (CLB30016); test: as above; assay type: cell-based
Method in brief: as §2

[6] = test system: Klebsiella pneumoniae expressing VIM-1 (IHMA599644); test: as above; assay type: cell-based
Method in brief: as §2

[7] = S. marcescens CL5741 (IMP-1), 95% inhibition of growth
[8] = E. coli CLB30016 (NDM-1), 95% inhibition of growth
[9] = K. pneumoniae IHMA599644 (VIM-1), 95% inhibition of growth
[10] = enzyme 1 pM, read-out: NDM1 IC50
[11] = 95% inhibition of bacterial growth, strain CL5741
[12] = 95% inhibition of bacterial growth, strain CLB30016
[13] = 95% inhibition of bacterial growth, strain IHMA599644
[14] = NDM-1 enzyme 1 pM, read-out: NDM1 IC50

IMP-1, sequence (P52699 19-246, looked up, species assumed): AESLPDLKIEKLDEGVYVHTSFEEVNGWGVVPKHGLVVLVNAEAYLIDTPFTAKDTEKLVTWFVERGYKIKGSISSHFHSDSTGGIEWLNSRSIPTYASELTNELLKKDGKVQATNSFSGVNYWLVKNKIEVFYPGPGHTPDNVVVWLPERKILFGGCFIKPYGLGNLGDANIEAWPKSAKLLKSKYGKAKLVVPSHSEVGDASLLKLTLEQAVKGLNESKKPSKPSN
NDM-1, sequence (C7C422 29-270, looked up, species assumed): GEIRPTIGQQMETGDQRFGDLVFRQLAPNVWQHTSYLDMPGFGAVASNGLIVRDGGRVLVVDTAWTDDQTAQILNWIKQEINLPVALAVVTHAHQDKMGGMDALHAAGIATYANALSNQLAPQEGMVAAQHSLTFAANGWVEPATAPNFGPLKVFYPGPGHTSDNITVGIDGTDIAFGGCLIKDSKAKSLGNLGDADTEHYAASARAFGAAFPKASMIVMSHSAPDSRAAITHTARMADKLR

Structure (SMILES)	IC50 ([1]; NDM1 IC50, NDM-1 enzyme 1 pM) [nM]	IC50 ([2]; VIM-1 enzyme 30 pM) [nM]	IC50 ([3]; IMP-1 enzyme 2 pM) [nM]	IMP1 SM5741 MITC95 [4, 7] [µM]	NDM1 EC30016 MITC95 [5, 8] [µM]	VIM1 KP599644 MITC95 [6, 9] [µM]	IC50 [1, 10] [nM]	IC50 ([2]; enzyme 30 pM) [nM]	IC50 ([3]; enzyme 2 pM) [nM]	IMP1 SM5741 MITC95 [4, 11] [µM]	NDM1 EC30016 MITC95 [5, 12] [µM]	VIM1 KP599644 MITC95 [6, 13] [µM]	IC50 [1, 14] [nM]
CCC[C@H](C(=O)O)[C@H](Cc1cnc(N2CCNCC2)nc1)c1nnn[nH]1 [Example 288, (S)-2-((S)-2-(2-(piperazin-1-yl)pyrimidin-5-yl)-1-(1H-tetrazol-5-yl)ethyl)pentanoic acid]	520	4.1	> 20000	150	12.5	12.5							
CCC[C@H](C(=O)O)[C@H](Cc1ccc(-c2ccc(N)nc2)cn1)c1nnn[nH]1 [Example 167, (2S)-2-[(1S)-2-(6′-amino-3,3′-bipyridin-6-yl)-1-(1H-tetrazol-5-yl)ethyl]pentanoic acid]							200	140	5700	>200	9.4	100	
O=C(O)[C@@H](CCCC1CCNCC1)[C@H](Cc1ccc(C2CCNC2)cc1)c1nnn[nH]1 (stereo partly drawn) [Example 434, (2S)-5-(piperidin-4-yl)-2-((1S)-2-(4-(pyrrolidin-3-yl)phenyl)-1-(1H-tetrazol-5-yl)ethyl)pentanoic acid 2,2,2-trifluoroacetate (1:2)]		16.6	2000	100	12.5	25							67.9
CCC[C@H](C(=O)O)[C@H](Cc1ccc(-c2nnn[nH]2)cc1)c1nn[nH]n1 [Example 44, (S)-2-((S)-2-(4-(1H-tetrazol-5-yl)phenyl)-1-(2H-tetrazol-5-yl)ethyl)pentanoic acid]							21	5.5	640	18.8	150	200	
CCC[C@H](C(=O)O)[C@H](Cc1cccc(N2CCCCC2)c1)c1nn[nH]n1 [Example 368, (2S)-2-[(1S)-2-(3-piperidin-1-ylphenyl)-1-(2H-tetrazol-5-yl)ethyl]pentanoic acid]		9.7	740	37.5	25	50							46
CC(C)[C@H](C(=O)O)[C@H](Cc1ccc(C2=CCNC2)cn1)c1nnn[nH]1 [Example 65, (2S,3S)-4-(5-(2,5-dihydro-1H-pyrrol-3-yl)pyridin-2-yl)-2-isopropyl-3-(1H-tetrazol-5-yl)butanoic acid]							760	72	> 20000	200	3.1	12.5	
CCC[C@H](C(=O)O)[C@H](Cc1cccc(-c2cncc3ccccc23)c1)c1nn[nH]n1 [Example 352, (2S)-2-[(1S)-2-(3-isoquinolin-4-ylphenyl)-1-(2H-tetrazol-5-yl)ethyl]pentanoic acid]		1.7	7.8	0.39	18.8	50							1.7
CCC[C@H](C(=O)O)[C@H](Cc1cccc(N2CCC[C@H](N)C2)c1)c1nn[nH]n1 [Example 366, (2S)-2-[(1S)-2-{3-[(3S)-3-aminopiperidin-1-yl]phenyl}-1-(2H-tetrazol-5-yl)ethyl]pentanoic acid]		13	8600	150	50	25							870
CCC[C@H](C(=O)O)[C@H](Cc1cccc(-c2cccc(CN)c2)c1)c1nn[nH]n1 [Example 359, (2S)-2-[(1S)-2-[3′-(aminomethyl)biphen-yl-3-yl]-1-(2H-tetrazol-5-yl)ethyl]pentanoic acid]		2.5	750	12.5	9.4	6.2							60
